The values that follow come from patent publication US20240252432A1, “COMPOSITIONS, METHODS AND SYSTEMS FOR AEROSOL DRUG DELIVERY” (ASTRAZENECA PHARMACEUTICALS LP, priority 2021, published 2024).

The conditions of data set [1]: cited from earlier work.
A short description of data set [2]: Aerodynamic particle size distribution by NGI of BFF formulations (Example 4). Conditions: dual co-suspension of budesonide and formoterol in HFO-1234ze(E); stored valve down, protected, 25° C./60% RH. The class given is physicochemical.
The nature of data set [3]: Particle size distribution by laser diffraction. The format is physicochemical. From the text: When referred to herein, the term “optical diameter” indicates the size of a particle as measured by the Fraunhofer diffraction mode using a laser diffraction particle size analyzer equipped with a dry powder dispenser (e.g., Sympatec GmbH, Clasthal-Zellerfeld, Germany).
Suspending particles were manufactured by spray drying an emulsion of PFOB (perfluorooctyl bromide) and water stabilized by DSPC (1,2-Distearoyl-sn-Glycero-3-Phosphocholine). […] The particle size distribution of the suspending particles was determined by laser diffraction.
Active agent particles formed of budesonide, 16,17-(butylidenebis(oxy))-11,21-dihydroxy-(11-β,16-α)-pregna-1,4-diene-3,20-dione, were formed by micronizing budesonide using a jet mill. The particle size distribution of the budesonide (BD) was determined by laser diffraction.

Data set [4] in a line: Aerodynamic particle size distribution by NGI of BDA formulations (Example 5). The following applies: dual co-suspension of budesonide and albuterol in HFO-1234ze(E); stored valve down, protected, 25° C./60% RH. The format is physicochemical.

Read-outs that look alike come from different tables or passages of the source.

Consider `FCC(F)(F)F` [HFA-134a, 1,1,1,2-tetrafluoroethane], for which the “Water Solubility in Propellant” value in data set [1] (@25) is 1100@25 ppm.
Regarding `FC=CC(F)(F)F` [HFO-1234ze, 1,3,3,3-tetrafluoropropene], the “Water Solubility in Propellant” value in data set [1] (@20) is given as 225@20 ppm.
For `CCCCCCCCCCCCCCCCCC(=O)OC[C@H](COP(=O)([O-])OCC[N+](C)(C)C)OC(=O)CCCCCCCCCCCCCCCCC` [DSPC, 1,2-Distearoyl-sn-glycero-3-phosphocholine], in data set [2], the “stability of aPSD by NGI” value is “stable for twelve months”.
For the compound `C[N+]1(C)CCC(OC(=O)C(O)(c2ccccc2)C2CCCC2)C1.[Br-]` (centres unmarked) [glycopyrrolate, Pyrrolidinium, 3-((cyclopentylhydroxyphenylacetyl)oxy)-1,1-dimethyl-, bromide], in data set [3], the “optical diameter below which 50% by volume of the particles lie” value is given as “smaller than 2.1 μm” and the “optical diameter below which 90% by volume of the particles lie” value is “smaller than 5 μm”.
For the compound `FC(C(F)(F)F)C(F)(F)F` [HFA-227ea, 1,1,1,2,3,3,3-Heptafluoropropane], the “Water Solubility in Propellant” value in data set [1] (@25) was 610@25 ppm.
Take `COc1ccc(CC(C)NCC(O)c2ccc(O)c(NC=O)c2)cc1.O=C(O)/C=C/C(=O)O` (racemic) [formoterol fumarate, (±)-2-hydroxy-5-[(1RS)-1-hydroxy-2-[[(1RS)-2-(4-methoxyphenyl)-1-methylethyl]-amino]ethyl]formanilide fumarate]: in data set [3], the “optical diameter below which 50% by volume of the particles lie” value was “smaller than 1.6 μm” and the “optical diameter below which 90% by volume of the particles lie” value is recorded as “smaller than 3.9 μm”.
For the compound `CCCC1O[C@@H]2C[C@H]3[C@@H]4CCC5=CC(=O)C=C[C@]5(C)[C@H]4[C@@H](O)C[C@]3(C)[C@]2(C(=O)CO)O1` (stereo partly drawn) [budesonide, 16,17-(butylidenebis(oxy))-11,21-dihydroxy-(11-β,16-α)-pregna-1,4-diene-3,20-dione], the “stability of aPSD by NGI” value in data set [2] and in data set [4] was “stable for twelve months” throughout.
Take `CC(F)F` [HFC-152a, 1,1-Difluoroethane]: the “Water Solubility in Propellant” value in data set [1] (@25) is recorded as 2100@25 ppm.
For `C=C(F)C(F)(F)F` [HFO-1234yf, 2,3,3,3-Tetrafluoropropene], the “Water Solubility in Propellant” value in data set [1] (@24) is given as 200@24 ppm.
Consider albuterol sulfate, for which, in data set [3], the “optical diameter below which 50% by volume of the particles lie” value is reported as “smaller than 1.5 μm” and the “optical diameter below which 90% by volume of the particles lie” value was “smaller than 3.3 μm”.
